How the values were obtained:
MDA-MB-435 [1] = experiment: Growth inhibition of human MDA-MB-435 cells at 10^-5 M after 48 hrs by SRB assay; type: functional; settings: MDA-MB-435, 48 h, read-out: GI
CAKI-1 = experiment: Growth inhibition of human Caki1 cells at 10^-5 M after 48 hrs by SRB assay; type: functional; settings: CAKI-1, 48 h, read-out: GI
NCI-H522 [2] = experiment: Growth inhibition of human NCI-H522 cells at 10^-5 M after 48 hrs by SRB assay; type: functional; settings: NCI-H522, 48 h, read-out: GI
[3] = Growth inhibition of human HCT15 cells at 10^-5 M after 48 hrs by SRB assay; type: functional; settings: HCT-15, 48 h, read-out: GI
Ovis aries = species: Ovis aries; experiment: Inhibition of sheep brain tubulin polymerization at 100 uM by fluorescence assay
MCF7 [4] = experiment: Growth inhibition of human MCF7 cells at 10^-5 M after 48 hrs by SRB assay; type: functional; settings: MCF7, 48 h, read-out: GI
[5] = Growth inhibition of human PC3 cells at 10^-5 M after 48 hrs by SRB assay; type: functional; settings: PC-3, 48 h, read-out: GI
A498 [6] = experiment: Growth inhibition of human A498 cells at 10^-5 M after 48 hrs by SRB assay; type: functional; settings: A498, 48 h, read-out: GI
[7] = Growth inhibition of human SF295 cells at 10^-5 M after 48 hrs by SRB assay; type: functional; settings: SF-295, 48 h, read-out: GI
[8] = Growth inhibition of human HCT116 cells at 10^-5 M after 48 hrs by SRB assay; type: functional; settings: HCT-116, 48 h, read-out: GI
[9] = Growth inhibition of human MOLT4 cells at 10^-5 M after 48 hrs by SRB assay; type: functional; settings: MOLT-4, 48 h, read-out: GI
MOLT-4 = experiment: Cytotoxicity against human MOLT4 cells assessed as cell growth at 10^-5 M after 48 hrs by SRB assay; type: functional; settings: MOLT-4, 48 h, read-out: Activity
Malme-3M = experiment: Growth inhibition of human MALME-3M cells at 10^-5 M after 48 hrs by SRB assay; type: functional; settings: read-out: GI
[10] = Growth inhibition of human EKVX cells at 10^-5 M after 48 hrs by SRB assay; type: functional; settings: read-out: GI
SNB-75 [11] = experiment: Growth inhibition of human SNB75 cells at 10^-5 M after 48 hrs by SRB assay; type: functional; settings: SNB-75, 48 h, read-out: GI
T47D = experiment: Growth inhibition of human T47D cells at 10^-5 M after 48 hrs by SRB assay; type: functional; parameters: Activity: scale not given: the % may be the effect or the level left
[12] = Inhibition of sheep brain tubulin polymerization by fluorescence assay; parameters: species or system Ovis aries
Tubulin = experiment: Inhibition of tubulin (unknown origin) polymerization; type: protein-complex assay, Homo sapiens
KM12 = experiment: Growth inhibition of human KM12 cells after 48 hrs by SRB assay; type: functional; settings: KM12, 48 h
MDA-MB-435 [13] = experiment: Growth inhibition of human MDA-MB-435 cells after 48 hrs by SRB assay; type: functional; settings: MDA-MB-435, 48 h
MCF7 [14] = experiment: Growth inhibition of human MCF7 cells after 48 hrs by SRB assay; type: functional; settings: MCF7, 48 h
MDA-MB-435 [15] = experiment: Cytotoxicity against human MDA-MB-435 cells assessed as cell growth at 10^-5 M after 48 hrs by SRB assay; type: functional; settings: MDA-MB-435, 48 h, read-out: Activity
SR = experiment: Growth inhibition of human SR cells after 48 hrs by SRB assay; type: functional
SK-MEL-5 = experiment: Growth inhibition of human SK-MEL-5 cells after 48 hrs by SRB assay; type: functional; settings: SK-MEL-5, 48 h
NCI-H522 [16] = experiment: Cytotoxicity against human NCI-H522 cells assessed as cell growth at 10^-5 M after 48 hrs by SRB assay; type: functional; settings: NCI-H522, 48 h, read-out: Activity
SNB-75 [17] = experiment: Growth inhibition of human SNB75 cells after 48 hrs by SRB assay; type: functional; settings: SNB-75, 48 h
NCI-H522 [18] = experiment: Growth inhibition of human NCI-H522 cells after 48 hrs by SRB assay; type: functional; settings: NCI-H522, 48 h
HL-60(TB) [19] = experiment: Growth inhibition of human HL-60(TB) cells after 48 hrs by SRB assay; type: functional; settings: HL-60, 48 h
MDA-MB-468 = experiment: Growth inhibition of human MDA-MB-468 cells after 48 hrs by SRB assay; type: functional; settings: MDA-MB-468, 48 h
HT-29 = experiment: Growth inhibition of human HT-29 cells after 48 hrs by SRB assay; type: functional; settings: HT-29, 48 h
A498 [20] = experiment: Growth inhibition of human A498 cells after 48 hrs by SRB assay; type: functional; settings: A498, 48 h
[21] = Cytotoxicity against human HCT116 cells assessed as cell growth at 10^-5 M after 48 hrs by SRB assay; type: functional; settings: HCT-116, 48 h, read-out: Activity
HL-60(TB) [22] = experiment: Growth inhibition of human HL-60(TB) cells at 10^-5 M after 48 hrs by SRB assay; type: functional; settings: HL-60, 48 h, read-out: GI
[23] = Growth inhibition of human PC3 cells after 48 hrs by SRB assay; type: functional; settings: PC-3, 48 h
[24] = Growth inhibition of human COLO205 cells after 48 hrs by SRB assay; type: functional; settings: COLO 205, 48 h
[25] = Growth inhibition of human HOP92 cells at 10^-5 M after 48 hrs by SRB assay; type: functional; settings: HOP-92, 48 h, read-out: GI
[26] = Growth inhibition of human OVCAR3 cells after 48 hrs by SRB assay; type: functional; settings: OVCAR-3, 48 h
NCI/ADR-RES = experiment: Growth inhibition of human NCI/ADR-RES cells after 48 hrs by SRB assay; type: functional

Molecule `CCOC(=O)c1cc(C(=O)c2ccc(OC)c(OC)c2)n2ccc(OC)cc12` has an inhibition of growth at 10 µM (MDA-MB-435 [1]) of 2%, an inhibition of growth at 10 µM (CAKI-1) of 3% and an inhibition of growth at 10 µM (NCI-H522 [2]) of 0%. The inhibition of growth at 10 µM [3] was 7%, the inhibition (Ovis aries) was 51% and the inhibition of growth at 10 µM (MCF7 [4]) was 8%. The inhibition of growth at 10 µM [5] was 12%, the inhibition of growth at 10 µM (A498 [6]) was 15% and the inhibition of growth at 10 µM [7] was 3%. For the same molecule, the inhibition of growth at 10 µM [8] was 2%, the inhibition of growth at 10 µM [9] was 100% and the growth at 10 µM (MOLT-4) was -53%. For the same molecule, the inhibition of growth at 10 µM (Malme-3M) was 12%, the inhibition of growth at 10 µM [10] was 0% and the inhibition of growth at 10 µM (SNB-75 [11]) was 0%. It also gave an inhibition of growth at 10 µM (T47D; Homo sapiens, T47D, 48 h, read-out: GI) of 4%.
In the case of `COc1ccc(C(=O)c2cc(OC)c(OC)c(OC)c2)cc1O` [PHENSTATIN], the inhibition (Ovis aries) is reported as 99%, the IC50 [12] is reported as 3430 nM and the IC50 (Tubulin) is reported as 3400 nM.
Molecule `CCOC(=O)c1cc(C(=O)c2cc(OC)c(OC)c(OC)c2)n2ccc(C)cc12` has a GI50 (KM12) of 497 nM, a GI50 (MDA-MB-435 [13]) of 234 nM and a GI50 (MCF7 [14]) of 339 nM. It also gave a growth at 10 µM (MDA-MB-435 [15]) of -17%, a GI50 (SR) of 310 nM and a GI50 (SK-MEL-5) of 411 nM. It also gave an inhibition of growth at 10 µM (MDA-MB-435 [1]) of 100%, an inhibition of growth at 10 µM (CAKI-1) of 66% and a growth at 10 µM (NCI-H522 [16]) of -9%. The GI50 (SNB-75 [17]) was 324 nM, the GI50 (NCI-H522 [18]) was 585 nM and the GI50 (HL-60(TB) [19]) was 630 nM. It also gave an inhibition of growth at 10 µM (NCI-H522 [2]) of 100%, an inhibition (Ovis aries) of 72% and a GI50 (MDA-MB-468) of 410 nM. It also gave a GI50 (HT-29) of 393 nM, an inhibition of growth at 10 µM (MCF7 [4]) of 88% and an inhibition of growth at 10 µM [5] of 79%. For the same molecule, the inhibition of growth at 10 µM [7] was 85%, the GI50 (A498 [20]) was 272 nM and the inhibition of growth at 10 µM [8] was 100%. For the same molecule, the growth at 10 µM [21] was -58%, the inhibition of growth at 10 µM [9] was 50% and the inhibition of growth at 10 µM (HL-60(TB) [22]) was 92%. For the same molecule, the GI50 [23] was 976 nM, the GI50 [24] was 650 nM and the inhibition of growth at 10 µM (Malme-3M) was 74%. The IC50 [12] was 28100 nM, the inhibition of growth at 10 µM [25] was 88% and the GI50 [26] was 343 nM. It also gave a GI50 (NCI/ADR-RES) of 411 nM, an inhibition of growth at 10 µM [10] of 50% and an inhibition of growth at 10 µM (SNB-75 [11]) of 82%. It also gave an Activity (T47D) of 83%.

Reference: ChEMBL document CHEMBL3352214, “Studies on indolizines. Evaluation of their biological properties as microtubule-interacting agents and as melanoma targeting compounds” (Eur J Med Chem, 2015)
